Results published in patent publication US9347942B2, “Ultrasensitive cell based sensors and uses thereof” (CANVAX BIOTECH SL, priority 2010, dated 2016).

Key:
[1] = target: T1, CHRM2 (Homo sapiens, UniProt P08172); assay: Exocytosis time optimisation, granzyme B FRET readout (Example 12); type: cell-based; conditions: agonist 10 uM
T1 construct: the entire human GPCR; mouse immunoglobulin kappa signal peptide (N); expressed in transfected cells
T1 sequence (P08172 2-466): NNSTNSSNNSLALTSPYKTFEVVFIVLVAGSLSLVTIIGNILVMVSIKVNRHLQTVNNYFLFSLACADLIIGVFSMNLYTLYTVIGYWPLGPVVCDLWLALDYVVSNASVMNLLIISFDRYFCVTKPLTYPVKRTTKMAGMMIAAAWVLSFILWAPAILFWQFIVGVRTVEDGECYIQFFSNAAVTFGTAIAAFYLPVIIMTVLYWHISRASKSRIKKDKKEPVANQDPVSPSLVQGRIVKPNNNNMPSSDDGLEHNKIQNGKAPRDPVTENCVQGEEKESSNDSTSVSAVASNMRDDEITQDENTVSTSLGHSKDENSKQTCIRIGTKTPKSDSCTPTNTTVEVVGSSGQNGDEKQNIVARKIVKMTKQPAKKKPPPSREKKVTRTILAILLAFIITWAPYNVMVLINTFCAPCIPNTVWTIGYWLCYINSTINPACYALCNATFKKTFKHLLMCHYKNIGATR
Source text: An experiment was designed to optimize assay conditions such as: exocytosis time, number of steps needed for assay and uses of cells in suspension. Cells developed in example #9 expressing both a GPCR and human granzyme B were used in this example for optimization of exocytosis time. GPCRs included were CHRM2 (an alpha-i coupled GPCR) and bradykinin type B1 receptor (an alpha-q coupled GPCR). Carbachol and kallinin from Sigma-Aldrich (USA) were used as ligands for CHRM2 and bradykinin type B1 receptor, respectively and used at 10 uM final concentration in HBSS buffer. Cells were seeded the night before experiment at 20.000 cells per well of a 96-well microplate in 100 uL of complete cell culture medium. Next day cells were washed with HBSS buffer and incubated with the ligand (agonist) at 10 uM of each GPCR in 30 uL of HBSS buffer at 37 Celsius degrees for 5, 15, 30 or 60 minutes and after centrifugation at 400 g for 5 minutes supernatants were analysed for human granzyme B activity using FAM-[…]-TAMRA at 1 uM final concentration as the human granzyme B substrate. Released FAM was measured by excitation at 485 nm and emission at 535 nm in a BMG Labtech microplate fluorimeter in 96 well microplates. Microplates were incubated at 37 Celsius degrees on the reader and were kinetically read at 0, 15, 30, 45 and 60 minutes. Control wells with substrate only in HBSS buffer were included to subtract autofluorescence of substrates to both cells treated with ligands and to cells treated with HBSS buffer only. […] The signal to background is lower at longer exocytosis times due to the higher increase in basal release than the increase in specific signal after the first 5 to 15 minutes. Thus, any exocytosis time from probably less than 5 minutes to at least 60 minutes may be used for the methods of the present invention but longer exocytosis times produce a sensor with a lower signal to background, exocytosis is nearly complete at 5 minutes and signal to background is good for a robust sensor.

[2] = target: T2, hIL8 receptor (hIL8RA) (Homo sapiens, UniProt P25024); assay: Multiplex assay, Sensor A channel (hIL8RA and human granzyme A) (Example 14); type: cell-based; conditions: Condition 4: Sensor A 12500 + Sensor B 5000 cells, carbachol 10 uM, no IL8, granzyme A substrate 1 uM
T2 construct: the entire human GPCR; mouse immunoglobulin kappa signal peptide (N); expressed in transfected cells
T2 sequence (P25024 3-350 limits assumed): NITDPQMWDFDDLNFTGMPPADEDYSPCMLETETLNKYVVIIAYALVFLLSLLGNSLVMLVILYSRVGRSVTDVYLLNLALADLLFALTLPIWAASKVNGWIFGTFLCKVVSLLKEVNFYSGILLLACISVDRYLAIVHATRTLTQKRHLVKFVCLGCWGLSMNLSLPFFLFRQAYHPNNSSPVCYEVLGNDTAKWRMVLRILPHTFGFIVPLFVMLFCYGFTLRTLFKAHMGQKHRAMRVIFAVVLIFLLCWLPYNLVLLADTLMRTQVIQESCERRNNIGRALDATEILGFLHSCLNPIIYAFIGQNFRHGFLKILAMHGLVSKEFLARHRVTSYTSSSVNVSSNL
Source text: The principle of multiplex reactions is illustrated in FIG. 5. RBL2H3 cells were stably transfected with a pair of a GPCR as exocytosis modulator and a granzyme as a granule stored reporter as described in example 9. Combinations included were: hIL8 receptor (hIL8RA) and human granzyme A (Sensor A) and CHRM2 and granzyme B expressing cells of example #12 (Sensor B). Human IL8 was used as agonist of hll_8R while carbachol was used as CHRM2 agonist. […] As both substrates uses the same pair of fluorophore (FAM) and quencher (TAMRA) only one substrate could be added to reaction vessel for specific detection at 535 nm after excitation at 485 nm. […] Sensors, agonists and substrates were mixed in a total volume of 20 uL of HBSS in a black walled 384 well microplate and the microplate was incubated at 37 Celsius degrees in a BMG-Labtech microplate fluorimeter and read at 0, 15, 30, 45 and 60 minutes.

C[N+](C)(C)CCOC(N)=O [Carbachol, carbachol]
exocytosis, % of maximal ([1]; 5 minutes, 20.000 cells): > 90%
signal to background (S/B) ([1]; medium taken at 5 to 15 minutes): 20-22
signal to background (S/B) ([1]; medium taken at 30 minutes): 15-17
signal to background (S/B) ([1]; medium taken at 60 minutes): 8-10
Signal to background at 30 min [2]: 0.78
